{"source": "patent US20210023074A1", "about": "“TREATMENT OF DEMYELINATING DISEASES” (Victoria Link Ltd., priority 2018, published 2021)", "system": "experimental autoimmune encephalomyelitis (EAE) mice", "experiment": "EAE model of MS, disease score, treatment from day of disease onset (score >1)", "format": "in vivo, C57BL/6 mice", "method": "Experimental detail: EAE was induced in female C57BL/6 mice as described in Example 1. On the day of disease onset (score >1, dotted line), mice were started on daily treatment with vehicle only (Veh) or nalmefene (NaIM) at 0.1, 0.03, 0.01, or 0.003 mg/kg by i.p. injection. […]\n(§1) Experimental detail: EAE was induced in female C57BL/6 mice as described in Example 1. On the day of disease onset (score >1, dotted line), mice were treated with vehicle only (daily), nalmefene (0.01 mg/kg by i.p. injection daily), the KOR antagonist norBNI (10 mg/kg by i.p. injection weekly), both nalmefene and norBNI, or the MOR antagonist BFNA (10 mg/kg by i.p. injection weekly).\nas §1, with “weekly). The peak disease score during the first EAE episode was recorded, and mice were considered recovered if they received a score <0.5 by day 23 post treatment initiation.” for “weekly).”\nExperimental detail: EAE was induced in female C57BL/6 mice as described in Example 1.", "note": "“Also recorded” adds a separate entry of the source."}
{"compound": "COC(=O)/C=C/C(=O)N[C@@H]1CC[C@@]2(O)[C@H]3Cc4ccc(O)c5c4[C@@]2(CCN3CC2CC2)[C@H]1O5", "note": "[BFNA]", "values": [{"measurement": "recovery from paralysis (disease score)", "setting": "10 mg/kg i.p. weekly from disease onset", "value": "does not enable recovery"}]}
{"compound": "CN1CCC[C@@H]1CCO[C@](C)(c1ccccc1)c1ccc(Cl)cc1", "note": "[clemastine fumerate]", "values": [{"measurement": "number of days in recovery (sustained recovery)", "setting": "nalmefene 0.01 mg/kg i.p. daily, clemastine fumerate 10 mg/kg i.p.", "value": "recovery is not sustained"}]}
{"compound": "Oc1ccc2c3c1O[C@H]1c4[nH]c5c(c4C[C@@]4(O)[C@@H](C2)N(CC2CC2)CC[C@]314)C[C@@]1(O)[C@H]2Cc3ccc(O)c4c3[C@@]1(CCN2CC1CC1)[C@H]5O4", "note": "[norBNI]", "values": [{"measurement": "effect on nalmefene-mediated recovery from paralysis", "setting": "norBNI 10 mg/kg i.p. weekly with nalmefene 0.01 mg/kg i.p. daily", "value": "abolishes the ability of nalmefene to enable full recovery from paralysis; also recorded: abolishes the ability of nalmefene to enable and sustain recovery from paralysis"}]}
